Here are results for two compounds from patent publication US20040147595A1, “Biofilm degrading or sloughing compositions and methods” (priority 2001, published 2004).

For assay [1], the system named is OHHL induced LuxR dependent expression of GFP. The assay can be described thus: Quantitative furanone inhibition of the LuxR-PluxI-gfp(ASV) quorum sensor in E. coli MT102 (pJBA89). The assay is classed as cell-based, Escherichia coli. As to conditions: gradient of furanone concentration lowering RFU to 40% versus OHHL concentration (5-100 nM). An excerpt:
To analyse the AHL antagonist activity of the halogenated furanones we tested the compounds for their ability to inhibit 3oxo-C6-HSL (OHHL) induced LuxR dependent expression of green fluorescent protein (GFP) from a Pgfp(ASV) fusion in the AHL monitor strain E. coli MT102 harbouring pJBA89 (Andersen et al., 2001).
The medium used is minimal ABT containing 0.5% glucose and 0.5% Casamino Acids. In growing cultures of the AHL monitor strain E. coli Mt102 (pJBA89) encoding […] and a P-gfp(ASV) fusion, GFP(ASV) is produced immediately upon OHHL addition specifically from the LuxR controlled P-gfp(ASV) fusion gene. The sensitivity is high (responsive to as little as 3 nm OHHL) and due to the instability built into the GFP (ASV) variant there is no background production of green fluoroscence (Andersen et al., 2001). GFP expression from the AHL monitor strain E. coli MT102 (pJBA89) and the control strain MT102 harbouring the lacl^q, Plas-gfp(ASV) IPTG inducible expression system pMH197 was quantified in the following way. Overnight cultures were diluted four fold in fresh medium and incubated for one hour at 30° C. while OHHL and furanone compounds in the required concentrations were mixed in the wells of microtiter dishes. […] When absolute values were required, green fluoroscence was measured on a fluorometer (model RF-1501; Shimadzu, Tokyo, Japan) act at an excitation wavelength of 475 nm and emission detection at 515 nm. To establish a correlation between the colour code of the ARGUS-50 captured images and green fluorescence, both colour and relative fluorescence units (RFU), were determined for a dilution series of an E. coli MT102 (pJBA89) culture which had been incubated with […]. […]
From the second plot, the furanone concentration reducing the relative activity to 40% (ID60) is determined for each OHHL concentration. […]
To enable easy comparison of the strength of the furanones, an inhibition index (IIX40) is calculated for each furanone compound. […]

The subject of assay [2] is bacterial growth. The assay can be described thus: Bacterial growth inhibition at the concentrations tested in the quorum sensor assay. Type of assay: cell-based. An excerpt:
The natural compound 2 has an IIX40 0.75 where as compound 30 and […] have IIX40 of 0.01 and 0.51 respectively.

Assay [3] concerns V. fisheri lux quorum sensing system (LuxR). The assay can be described thus: V. fisheri luxR PluxI-gfp(ASV) reporter in PAO-JP2 biofilm. The assay is classed as cell-based, Pseudomonas aeruginosa. As to conditions: 250 nM OHHL. How it is done:
P. aeruginosa biofilms. Biofilms were grown at 30° C. in three-dimensional flow cells (Christensen et al., 1999) with individual channel dimensions of 0.3×4×40 mm supplied With ABt minimal medium supplemented with 2% LB. The flow system was assembled and prepared as described by Christensen et al. (1999). The substratum consisted of a microscope glass coverslip (Knittel 24×50 mm st1, Knittel Glaser, Braunschweig, Germany). Cultures for inoculation of the flow channels were prepared in the following way: P. aeruginosa strains were streaked on LB plates with the appropriate antibiotics and incubated for 24 h at 37° C. From each plate a single colony was used for inoculation of 10 ml ABt with 10% LB. The cultures were grown at, 30° C. for 18 h before they were diluted to an OD600 nm of 0.1 in sterile 0.9% NaCl and used for inoculation of the flow channels. Medium flow was kept at a constant rate of 3 mL/h, equivalent to a mean flow velocity of 0.7 mm/s, using a Watson-Marlow 205S peristaltic pump (Watson-Marlow, Falmouth, England). Biofilms were grown for 24 hours before being shifted to media containing AHL and furanone.
Scanning confocal laser microscopy (SCLM). Microscopic inspection and image acquisition were performed an a scanning confocal laser microscope (model TCS4D, Leica Lasertechnik GmbH, Heldelberg, Germany) equipped with a 63×/1.32-0.6 oil objective. The microscope was equipped with a motorized and programmable xy-stage, which was used for monitoring single colonies during the biofilm experiments. At the beginning of each online experiment, the microscope was programmed to track single randomly selected microcolonies; the sensitivity of photo multipliers and the laser intensity were adjusted and thereafter kept constant through out the duration of the experiments. Image scanning was carried out using the 488 nm and 568 nm lines of an Ar/Kr laser for detection of Gfp and Rfp, respectively. Visualization of captured images was performed using the IMARIS software package (Bitplane AG, Zúrich, Switzerland) running on a Silicon Graphics Indigo 2 workstation (Silicon Graphics, Mountain View, Calif. USA).
Repression of LuxR-activated quorum sensing controlled gene transcription. We speculated that the AHL-antagonstic properties of furanone 56 was specific to the P. aeruginosa las quorum sensing system. To test this, a previously published quorum sensing reporter based on the Vibro fisherf luxR gene and Pluxl-gfp(ASV) (Anderson at al, 2001; Wu et al, 2000) was transferred to PAO-JP2.

Assay [4] deals with OHHL induced LuxR dependent expression of GFP. As to conditions: E. coli MT102 (pJBA89); cited from earlier work.

On to `O=C1C=C(Br)/C(=C/Br)O1` [Compound 30], for which the “inhibition index (IIX40)” value in assay [1] is given as 0.01 mole of furanone per mmole of. For the same compound, in assay [2], the “concentration slightly above which growth was inhibited” value was “above 10 nm”.

`CCCC(=O)CC(=O)N[C@H]1CCOC1=O` [OHHL, N-[3-oxo-hexanoyl]-L-homoserine lactone, reference compound]: in assay [3], the “green fluorescence of biofilm” value is listed as “developed within one hour”. For the same compound, the “lowest OHHL concentration the monitor strain responds to” value in assay [4] is reported as 3 nm.
